Measured values as given in patent EP4737445A1, “NOVEL SATURATED HETEROCYCLE-SUBSTITUTED HETEROARYL-CARBONOHYDRAZONOYL DICYANIDE COMPOUND AND USE THEREOF” (Korea Institute of Science and Technology, priority 2023, dated 2025).

What was measured:
[1] = system: TDP-43 BiFC cells; test: Cell viability (stained nuclei count) in TDP-43-BiFC cells; type: cell-based; details: Forskolin-only group = 100%
Method: (§1) To screen for new TDP-43 aggregation inhibitors, a TDP-43-BiFC cell model that facilitates observation of TDP-43 aggregate formation in living cells was used. Specifically, TDP-43-BiFC cells were dispensed into a 384-well plate, and the next day, the compounds prepared according to Examples 1 to 46 were treated at concentrations of 3 and 10 µM, respectively, together with Forskolin (treatment concentration 30 µM), which is a compound that induces TDP-43 aggregation by activating the phosphorylation enzyme PKA. After 48 hours, nuclei within cells were stained using Hoechst (treatment concentration 1 µg/mL), and BiFC fluorescence intensity was automatically quantified using Operetta (PerkinElmer) to count the stained nuclei in each well from the entire plate. The group treated only with Forskolin, which induces TDP-43 aggregation, was set as the reference point with 100% TDP-43 aggregation state, and the effect was confirmed by the formula "(BiFC fluorescence intensity by the compounds synthesized according to the Examples of the disclosure - fluorescence intensity of the untreated control group)/(fluorescence intensity of the control group treated only with Forskolin that induces TDP-43 aggregation - fluorescence intensity of the untreated control group) × 100". In addition, the degree of cytotoxicity induced by the newly synthesized compounds was also calculated using the formula "(number of stained nuclei in the compound-treated group/number of stained nuclei in the Forskolin-treated group) × 100", with the group treated only with Forskolin as the reference point at 100% viability. From the treatment results, substances that inhibit intracellular TDP-43 aggregation were identified through screening from a series of candidates based on the criteria of 80% or more TDP-43 aggregation inhibition and 60% cell viability at a compound treatment concentration of 3 µM.
(§2) Furthermore, to confirm the TDP-43 aggregation inhibitory effect according to the concentration of the compounds screened in Experimental Example 3, the screened compounds were treated to […] at concentrations of 0.003, 0.01, 0.03, 0.1, 0.3, 1, 3, and 10 µM, respectively, together with Forskolin (treatment concentration 30 µM), which is a TDP-43 aggregation-inducing substance. After 48 hours, cell images were examined to analyze the TDP-43 aggregation reaction and degree of cytotoxicity. The IC50 and toxicity of the compounds were analyzed by nonlinear regression analysis using Prism software (GraphPad). The calculated results for representative compounds are shown in Table 4 below: TDP-43 protein aggregation inhibitory effect and cell viability of novel compounds.

[2] = Liver microsomal stability, rat; type: in vitro ADME; details: 1 µM compound; 0.5 mg/mL microsomes; NADPH; 30 minutes at 37°C
Method: (§3) Liver microsomal stability by the compounds prepared according to Examples 1 to 46 was confirmed. Specifically, four types of liver microsomes (human, dog, rat, and mouse each at 0.5 mg/mL), 0.1 M phosphate buffer solution (pH 7.4), and the compounds at 1 µM concentration were added and pre-incubated at 37°C for 5 minutes, and then NADPH generation system solution was added and incubated at 37°C for an additional 30 minutes. Thereafter, an acetonitrile solution containing an internal standard (chloropropamide) was added to terminate the reaction, and after centrifugation for 5 minutes (14,000 rpm, 4°C), the supernatant was injected into an LC-MS/MS system to analyze the substrate drug, thereby evaluating the metabolic stability of 8 compounds.
(§4) The amount of remaining substrate through the reaction was analyzed using a Shimadzu Nexera XR system and TSQ vantage (Thermo). A Kinetex XB-C18 (2.1 × 100 mm, 2.6 µm, particle size; Phenomenex, USA) was used as the HPLC column, and (A) distilled water containing 0.1% formic acid and (B) acetonitrile containing 0.1% formic acid were used as mobile phases. Analyst software (version 1.6.3) and Xcalibur (version 1.6.1) were used for data analysis. The calculated results are shown in Table 5 below: Liver microsomal stability data of novel compounds from […] (human, rat, and mouse).

[3] = target: T1, CYP2C19 (Homo sapiens, UniProt P33261); test: CYP isoenzyme activity inhibition in human liver microsomes, CYP2C19; type: in vitro ADME; details: 10 µM compound; human liver microsomes 0.25 mg/mL; relative to control without compound
T1 construct: human liver microsomes (0.25 mg/mL); from tissue; host or cells: human liver microsomes
T1 sequence (P33261 whole entry): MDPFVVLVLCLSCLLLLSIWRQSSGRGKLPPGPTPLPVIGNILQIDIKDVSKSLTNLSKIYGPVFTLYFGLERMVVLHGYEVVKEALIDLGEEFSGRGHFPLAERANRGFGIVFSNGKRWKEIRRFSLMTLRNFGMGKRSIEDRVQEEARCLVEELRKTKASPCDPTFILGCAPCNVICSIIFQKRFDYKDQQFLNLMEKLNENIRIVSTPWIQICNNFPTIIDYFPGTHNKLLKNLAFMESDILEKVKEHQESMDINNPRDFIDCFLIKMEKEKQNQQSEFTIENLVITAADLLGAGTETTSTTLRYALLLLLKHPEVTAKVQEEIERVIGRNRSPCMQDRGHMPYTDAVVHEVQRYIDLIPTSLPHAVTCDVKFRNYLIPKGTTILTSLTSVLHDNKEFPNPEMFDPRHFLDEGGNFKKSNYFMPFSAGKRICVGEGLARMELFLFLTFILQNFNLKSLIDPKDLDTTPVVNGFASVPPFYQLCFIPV
Method: (§5) The CYP isoenzyme activity inhibitory effect by the compounds prepared according to Examples 1 to 46 was confirmed. Specifically, human liver microsomes (0.25 mg/mL), 0.1 M phosphate buffer solution (pH 7.4), a substrate drug cocktail of five drug metabolizing enzymes (Phenacetin 50 µM, Diclofenac 10 µM, S-mephenytoin 100 µM, Dextromethorphan 5 µM, and Midazolam 2.5 µM), and the compounds were added at concentrations of 0 or 10 µM, respectively, and pre-incubated at 37°C for 5 minutes, and then NADPH generation system solution was added and incubated at 37°C for an additional 15 minutes. Thereafter, an acetonitrile solution containing an internal standard (Terfenadine) was added to terminate the reaction, and after centrifugation for 5 minutes (14,000 rpm, 4°C), the supernatant was injected into an LC-MS/MS system to simultaneously analyze the metabolites of the substrate drugs, thereby evaluating the drug metabolizing enzyme inhibitory activity.
(§6) The metabolites of each CYP isoenzyme marker drug generated through the reaction were analyzed using a Shimadzu Nexera XR system and TSQ vantage (Thermo). A Kinetex C18 (2.1 × 100 mm, 2.6 µm, particle size; Phenomenex, USA) was used as the HPLC column, and (A) distilled water containing 0.1% formic acid and (B) acetonitrile containing 0.1% formic acid were used as mobile phases, and a gradient program as shown in Table 6 below was applied.
(§7) The generated metabolites were quantified using MRM (Multiple Reaction Monitoring) quantitative mode, and Xcalibur (version 1.6.1) was used for data analysis. To show the CYP isoenzyme activity inhibitory effect of the novel compounds prepared according to the Examples of the disclosure, the % activity of CYP isoenzymes relative to the control group without compound addition is shown in Table 6 below. Additionally, to confirm the difference in effect according to substituents, Comparative Compounds 1 and 5, which are two compounds that share a similar parent nucleus structure with Compounds 1 to 46 of the disclosure while Cy is substituted with aromatic heteroaryl instead of saturated heterocyclyl, were selected as comparative compounds and their activities are shown together.

[4] = target: T2, TDP-43 protein (Homo sapiens, UniProt Q13148); test: TDP-43 aggregation inhibition in TDP-43-BiFC cell model (Forskolin-induced); type: cell-based; details: for inhibition at 3 µM: read-out: TDP-43 protein aggregation inhibitory effect: Aggregation inhibitory effect (%) (@3 uM)
T2 construct: BiFC fluorescent-protein fragments (two complementary halves); expressed in transfected cells
T2 sequence (Q13148 whole entry, the tested form may be a part): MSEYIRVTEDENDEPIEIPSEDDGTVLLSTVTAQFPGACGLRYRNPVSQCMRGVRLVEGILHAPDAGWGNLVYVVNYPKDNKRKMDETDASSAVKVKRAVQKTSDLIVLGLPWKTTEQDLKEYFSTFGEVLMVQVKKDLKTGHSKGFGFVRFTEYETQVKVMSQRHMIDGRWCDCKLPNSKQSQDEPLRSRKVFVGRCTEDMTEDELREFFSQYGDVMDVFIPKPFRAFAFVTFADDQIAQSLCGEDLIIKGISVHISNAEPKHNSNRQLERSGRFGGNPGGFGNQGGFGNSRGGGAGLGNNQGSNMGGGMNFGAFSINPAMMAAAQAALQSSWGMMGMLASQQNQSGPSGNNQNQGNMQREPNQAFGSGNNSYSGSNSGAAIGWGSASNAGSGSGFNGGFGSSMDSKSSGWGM
Method: as §1, §2

[5] = target: T3, CYP3A4 (Homo sapiens, UniProt P08684); test: CYP isoenzyme activity inhibition in human liver microsomes, CYP3A4; type: in vitro ADME; details: 10 µM compound; human liver microsomes 0.25 mg/mL; relative to control without compound
T3 construct: human liver microsomes (0.25 mg/mL); from tissue; host or cells: human liver microsomes
T3 sequence (P08684 whole entry): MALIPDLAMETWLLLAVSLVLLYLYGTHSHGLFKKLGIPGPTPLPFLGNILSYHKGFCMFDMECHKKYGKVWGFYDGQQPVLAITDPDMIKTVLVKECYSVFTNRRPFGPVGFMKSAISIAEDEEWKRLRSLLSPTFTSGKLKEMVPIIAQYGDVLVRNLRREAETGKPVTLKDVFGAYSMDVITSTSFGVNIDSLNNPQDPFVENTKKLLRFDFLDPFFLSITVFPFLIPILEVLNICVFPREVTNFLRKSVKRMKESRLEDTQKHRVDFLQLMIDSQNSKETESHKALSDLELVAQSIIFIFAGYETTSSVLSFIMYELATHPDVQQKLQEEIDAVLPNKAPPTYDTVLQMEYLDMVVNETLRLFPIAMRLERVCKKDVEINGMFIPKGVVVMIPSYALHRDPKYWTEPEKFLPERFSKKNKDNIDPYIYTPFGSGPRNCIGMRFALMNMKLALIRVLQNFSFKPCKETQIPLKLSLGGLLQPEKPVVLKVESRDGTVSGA
Method: as §5, §6, §7

[6] = Liver microsomal stability, human; type: in vitro ADME; details: 1 µM compound; 0.5 mg/mL microsomes; NADPH; 30 minutes at 37°C
Method: as §3, §4

N#CC(C#N)=NNc1ccc2nc(N3CCOCC3)sc2c1 [Compound 2, (2-morpholinobenzo[d]thiazol-6-yl)carbonohydrazonoyl dicyanide]
Cell viability (%) (@ 3 uM) [1]: 87.5% | Rat microsomes (% remaining) [2]: 55.2 % remaining | CYP2C19 (% activity) [3]: 96.7 % activity | inhibition at 3 µM [4]: 100% | CYP3A4 (% activity) [5]: 95.7 % activity | Human microsomes (% remaining) [6]: 74.3 % remaining

N#CC(C#N)=NNc1ccc2nc(N3C4CCC3COC4)sc2c1 [Compound 11, (2-(3-oxa-8-azabicyclo[3.2.1]octan-8-yl)benzo[d]thiazol-6-yl)carbonohydrazonoyl dicyanide]
Cell viability (%) (@ 3 uM) [1]: 80.9% | Rat microsomes (% remaining) [2]: 73.9 % remaining | CYP2C19 (% activity) [3]: 80.3 % activity | inhibition at 3 µM [4]: 100% | CYP3A4 (% activity) [5]: 78.4 % activity | Human microsomes (% remaining) [6]: 81.3 % remaining

CC(C)N1CCN(c2nc3ccc(NN=C(C#N)C#N)cc3o2)CC1 [Compound 28, (2-(4-isopropylpiperazin-1-yl)benzo[d]oxazol-6-yl)carbonohydrazonoyl dicyanide]
Cell viability (%) (@ 3 uM) [1]: 113.4% | Rat microsomes (% remaining) [2]: 50.7 % remaining | CYP2C19 (% activity) [3]: 90.8 % activity | inhibition at 3 µM [4]: 57.1% | CYP3A4 (% activity) [5]: 87.8 % activity | Human microsomes (% remaining) [6]: 11.7 % remaining

Cn1c(N2C3CCC2COC3)nc2ccc(NN=C(C#N)C#N)cc21 [Compound 34, (2-(3-oxa-8-azabicyclo[3.2.1]octan-8-yl)-1-methyl-1H-benzo[d]imidazol-6-yl)carbonohydrazonoyl dicyanide]
Cell viability (%) (@ 3 uM) [1]: 59.5% | Rat microsomes (% remaining) [2]: 97.1 % remaining | CYP2C19 (% activity) [3]: 80.6 % activity | IC50 [4]: 10 nM | inhibition at 3 µM [4]: 82.4% | CYP3A4 (% activity) [5]: 84.3 % activity | Human microsomes (% remaining) [6]: 88.9 % remaining

N#CC(C#N)=NNc1ccc2nc(N3CCOCC3)oc2c1 [Compound 4, (2-morpholinobenzo[d]oxazol-6-yl)carbonohydrazonoyl dicyanide]
Cell viability (%) (@ 3 uM) [1]: 104.2% | Rat microsomes (% remaining) [2]: 80.9 % remaining | CYP2C19 (% activity) [3]: 93.4 % activity | inhibition at 3 µM [4]: 100% | CYP3A4 (% activity) [5]: 94 % activity | Human microsomes (% remaining) [6]: 93.5 % remaining

CC(=O)N1CCN(c2nc3ccc(NN=C(C#N)C#N)cc3o2)CC1 [Compound 31, (2-(4-acetylpiperazin-1-yl)benzo[d]oxazol-6-yl)carbonohydrazonoyl dicyanide]
Cell viability (%) (@ 3 uM) [1]: 82.7% | Rat microsomes (% remaining) [2]: 88.3 % remaining | CYP2C19 (% activity) [3]: 90.8 % activity | inhibition at 3 µM [4]: 41.4% | CYP3A4 (% activity) [5]: 88.3 % activity | Human microsomes (% remaining) [6]: 99.9 % remaining

CCn1c(N2CCOCC2)nc2cc(NN=C(C#N)C#N)ccc21 [Compound 33, (1-ethyl-2-morpholino-1H-benzo[d]imidazol-5-yl)carbonohydrazonoyl dicyanide]
Cell viability (%) (@ 3 uM) [1]: 55.0% | Rat microsomes (% remaining) [2]: 96.8 % remaining | CYP2C19 (% activity) [3]: 78.6 % activity | IC50 [4]: 124 nM | inhibition at 3 µM [4]: 93.9% | CYP3A4 (% activity) [5]: 75.4 % activity | Human microsomes (% remaining) [6]: 94.9 % remaining

CC1COCCN1c1nc2ccc(NN=C(C#N)C#N)cc2s1 (stereo not drawn) [Compound 13, (2-(3-methylmorpholino)benzo[d]thiazol-6-yl)carbonohydrazonoyl dicyanide]
Cell viability (%) (@ 3 uM) [1]: 63.6% | Rat microsomes (% remaining) [2]: 47.7 % remaining | CYP2C19 (% activity) [3]: 83.3 % activity | inhibition at 3 µM [4]: 100% | CYP3A4 (% activity) [5]: 84.8 % activity | Human microsomes (% remaining) [6]: 79.9 % remaining

N#CC(C#N)=NNc1ccc2nc(N3CCNCC3)oc2c1 [Compound 25, (2-(piperazin-1-yl)benzo[d]oxazol-6-yl)carbonohydrazonoyl dicyanide]
Cell viability (%) (@ 3 uM) [1]: 76.7% | CYP2C19 (% activity) [3]: 85.7 % activity | IC50 [4]: 53 nM | inhibition at 3 µM [4]: 98.2% | CYP3A4 (% activity) [5]: 91.5 % activity

N#CC(C#N)=NNc1ccc2nc(N3CC4CCC(C3)O4)sc2c1 [Compound 23, (2-(8-oxa-3-azabicyclo[3.2.1]octan-3-yl)benzo[d]thiazol-6-yl)carbonohydrazonoyl dicyanide]
Cell viability (%) (@ 3 uM) [1]: 81.1% | Rat microsomes (% remaining) [2]: 69.8 % remaining | CYP2C19 (% activity) [3]: 69.6 % activity | IC50 [4]: 107 nM | inhibition at 3 µM [4]: 99.2% | CYP3A4 (% activity) [5]: 71.7 % activity | Human microsomes (% remaining) [6]: 85.6 % remaining

CN1CCN(c2nc3ccc(NN=C(C#N)C#N)cc3o2)CC1 [Compound 14, (2-(4-methylpiperazin-1-yl)benzo[d]oxazol-6-yl)carbonohydrazonoyl dicyanide]
Cell viability (%) (@ 3 uM) [1]: 101.4% | CYP2C19 (% activity) [3]: 95.5 % activity | inhibition at 3 µM [4]: 100% | CYP3A4 (% activity) [5]: 96.8 % activity

N#CC(C#N)=NNc1ccc2nc(N3CCNCC3)sc2c1 [Compound 24, (2-(piperazin-1-yl)benzo[d]thiazol-6-yl)carbonohydrazonoyl dicyanide]
Cell viability (%) (@ 3 uM) [1]: 83.1% | CYP2C19 (% activity) [3]: 67.9 % activity | IC50 [4]: 53 nM | inhibition at 3 µM [4]: 97.9% | CYP3A4 (% activity) [5]: 74.7 % activity

CC(C)N1CCN(c2nc3ccc(NN=C(C#N)C#N)cc3s2)CC1 [Compound 27, (2-(4-isopropylpiperazin-1-yl)benzo[d]thiazol-6-yl)carbonohydrazonoyl dicyanide]
Cell viability (%) (@ 3 uM) [1]: 104.8% | CYP2C19 (% activity) [3]: 95.4 % activity | inhibition at 3 µM [4]: 48.2% | CYP3A4 (% activity) [5]: 59.8 % activity
